Here are results for two compounds from US20100092575A1, “Method of making treatment materials and using same to treat algae and/or pests” (priority 2004, published 2010).

In data set [1] the test system is flora and fauna in the water feature. Conditions: previous treatment method of the water hazard. The text has this: A golf course water hazard in Northern California contained large mats (i.e., growths) of string algae during the summer months. The algae were predominantly confined to the edges of the water body. […] Furthermore, a special permit is needed to apply toxic copper sulfate.

The conditions of data set [2]: aqueous; cited from earlier work.

Each structure is given as a SMILES string.

On to `O=S(=O)([O-])[O-].[Cu+2]` [copper sulfate], for which the “effect on flora and fauna in the water feature” value in data set [1] was “killed most of the flora and fauna”.

Regarding `OO` [hydrogen peroxide], in data set [2], the “pH values at which decomposition significantly increases” value is given as “greater than 6”.
